For assay [1], the target named is T1, p97-ND1 (Homo sapiens, UniProt P55072).
T1 construct: His6 (TEV protease-cleavable) (N); made in house
As to the kind of experiment: BLI dose-response binding to the p97-ND1 construct. An excerpt:
As starting point for the initial screen, a BLI binding assay was developed with a p97-ND1 construct (amino acids 2-481) to allow validation with adenosine diphosphate (ADP) as a positive control. The p97-ND1 construct was enzymatically biotinylated via an Avi-Tag and Escherichia coli biotin ligase[28] and loaded to high response (>5 nm) on Super Streptavidin Biosensors (SSA), yielding a homogeneous sensor surface. […] The kinetic analysis of the sensorgrams indicated a clear 1:1 binding model for ADP. […] Another surprising result were the high responses upon ADP-binding with shifts over 0.7 nm. These high values indicate that the BLI signal is not only dependent on the molar weight as in SPR but may also reflect conformational changes induced in p97 upon ADP binding.
For 12 fragments, a dose-dependent binding was observed and a 1:1 Langmuir model could be applied to obtain the respective KD value. The determined KD^(p97-ND1) values mostly agreed well with those previously determined for the respective fragments with the isolated N-domain. […] TROLL1 and VIK40 were therefore not considered further.
(§1) Protein constructs for BLI measurements were enzymatically biotinylated using BirA[28]. Biotinylated p97 was loaded on Super Streptavidin Biosensors (SSA) obtained from Sartorius as follows. SSA-sensors were equilibrated in PBS-buffer, loaded with a protein solution containing 50 µg/mL (p97-ND1) or 100 µg/mL (p97-N) protein, blocked with biocytin and washed in PBS buffer. Reference SSA-sensors were set up by blocking them with a 10 µg/mL biocytin solution for 5 min[27]. The SSA-sensors were loaded to a shift of up to 7 nm with p97-ND1 and 10 nm with p97-N, respectively.
(§2) Screening plates were prepared by adding 10 µL of a 10 mM DMSO stock solution of library compound to 190 µL of PBS buffer (containing 0.05% TWEEN 20, 1 mM DTT and 5 mM MgCl2 [only for p97-ND1]) in 96 well plates (Greiner). The final DMSO concentration was 5% (v/v). All BLI measurements were performed on an Octet RED96e (Sartorius) device.
(§3) Selected fragments of the initial screenings were confirmed by dose-response-titrations using six concentrations ranging from 1000 to 31.3 µM in a 1:1 dilution series. Every concentration was measured twice. The assay settings were as follows: baseline measurement 15 s; association time 120 s and dissociation time 180 s. The double referenced data were further analyzed in Origin Pro to estimate the affinity by fitting the signals of the steady states to a 1:1 Langmuir model. For the fitting all measured data points (n = 2) were considered.

The target of the next assay is p97 ND1 fragment. The note with it: read-out: reported affinity of ADP, cited from earlier work.
The target in another assay is T2, p97-N (Homo sapiens, UniProt P55072).
T2 construct: Constructs of p97-N (aa 21-199, N-terminal 3 C protease-cleavable His6-tag); His6 (3C protease-cleavable) (N); made in house
T2 sequence (P55072 21-199): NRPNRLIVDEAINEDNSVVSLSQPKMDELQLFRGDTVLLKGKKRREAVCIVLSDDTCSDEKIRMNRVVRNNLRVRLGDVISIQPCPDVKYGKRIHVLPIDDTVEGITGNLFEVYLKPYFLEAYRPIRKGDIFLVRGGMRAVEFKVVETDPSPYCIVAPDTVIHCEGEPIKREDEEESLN
As to the kind of experiment: BLI dose-response binding to the isolated N-domain of p97. The note with it: for Kd: BLI steady state, 1:1 Langmuir model, errors from the fitting model; for LLEAT: based on KD for p97-N, heavy atom count and clogP; for ScoreBLI: based on sensorgrams from measurements with p97-N, about 1.0 or above = 1:1 binder; for LE: ligand efficiency based on KD for p97-N. As to the method: The selected 42 fragments of the screen with the N-domain were tested in a dose-dependent manner using concentrations from 1000.0 µM to 31.3 µM in 1:1 dilution steps. […] The sensorgrams of these fragments were fitted with a 1:1 Langmuir model to estimate their affinities and analyzed with respect to the following parameters: (i) The presence of a stationary phase; (ii) curve shapes according to either a homogeneous (1:1) or a heterogeneous (2:1) binding model, and (iii) justification of a 1:1 binding model via the obtained empirical constants kobs of the association phase. Based on these analyses, a ScoreBLI was calculated (for details see Supplementary Methods in the Supporting Information). The calculated ScoreBLI should be close to or above 1.0 for ligands that can be described with a 1:1 model, whereas ligands showing unspecific binding yield values << 1.0. Based on the ScoreBLI, we divided the fragments into a low-scoring (<0.70) and a high-scoring (≥0.70) group.
as §1, §2, §3
Definition of the quality score “ScoreBLI”
For selecting fragments for further analysis, the ScoreBLI was def ined as : […]
SSSSSSSSSSBBBBBB = rrmmmmmmmm 1:1rrmmmmmmmm 2:12 SSkkkkkkkk rmean 1:12 is the mean of the r2 coefficients of t he r egr es s ions of all association phases measured f or a given f ragment. The data were f itted with a 1:1 binding model:
RRPP = RRPPee ?1 − SS −(kkkkkkkk PP ) ? with RRPP the shift at the time t, k obs the empirical rate constant and RRPPee the shift at equilibrium.
In analogy, the rmean 2:12 was def ined by f itting with a 2:1 binding model:
RRPP = RRPPee 1 ?1 − SS −(kkkkkkkk1 PP) ? + RRPPee 2 ?1 − SS −(kkkkkkkk2 PP) ? A ligand f ollowing a 1:1 model would result in a good rmean2 f or both functions, whereas f or a lig and which is better described with a 2:1 model the rmean2 f or a 1:1 model would decrease, resulting in an overall decreased value.
In case of a 1:1 model the empirical rate constant k obs is proportional to the concentration of […]
kkkkkkkk = kkPP [LL ] + kkdd with ka t he association rate constant and kd t he dissociation rate constant. Theref ore, all observed empirical rate constants of a ligand were subjected to a linear regression model, which yielded the value r kobs2 .
A Langmuir model was used to es t im at e the affinities of the fragments. The use of this model requires that a chemical equilibrium is reached. To analyze whether this condition was met, the responses of the last 10 seconds of each association phase were f itted with a linear model. […]

Assay [2] deals with T1, p97-ND1. The assay is described as follows: STD-NMR with p97-ND1 in the presence of 500 µM ADP. The note with it: for maximum STD-effect (ND1) / mean STD-effect (ND1): Supplementary Table 3; for STD (maximum STD signal measured with p97-ND1): aromatic resonances, 428 µM fragment, 30 µM protein, 500 µM ADP. The arrangement: key to mean STD-effect (ND1) / maximum STD-effect (ND1): STD effect = Idiff/Ioff × 100 (%). Format: binding. On the procedure:
The NMR measurements were carried out with the biologically more relevant p97-ND1 construct in the presence of 500 µM ADP to block the nucleotide binding site. The STD effect was calculated by dividing the intensity of the difference spectrum by the intensity of the off-spectrum (Idiff/ Ioff × 100) for each signal. For further analysis only resonances in the aromatic region of the ^1H NMR spectrum of the individual ligand were considered. A mean STD effect of each fragment interacting with p97-ND1 was calculated using the sum of the individual STD effects divided by the number of signals considered. Furthermore, the maximum STD effect of each compound was determined. […] Similar results were obtained in the previously reported fragment screen with p97[26]. An overview of the STD effects is shown in Supplementary Fig. 4.
All Saturation-Transfer-Difference (STD)[32] measurements were performed on a Bruker Avance III 400 MHz spectrometer (Karlsruhe, Germany) operating at 400.13 MHz with a PABBI 1H/D-BB Z-GRD inverse probe at 300 K adjusted with a BSVT (Bruker) temperature control unit. Temperature calibration was carried out with 99.8% CD3OD (282–330 K). The stddiffesgp.3 pulse program from the Bruker pulseprogram library was used for data acquisition. The suppression of the HDO signal (4.703 ppm) was achieved by the excitation sculpting method. The saturation frequency for the on- and off-resonances was set to −400 Hz and −16,000 Hz, respectively. The saturation time was 3 s with a relaxation delay D1 of 4 s.
The protein stock solutions were transferred to a deuterated buffer containing 35 mM potassium phosphate and 25 mM NaCl in D2O at a pD of 7.5 using 0.5 mL Centricon devices (Merck Millipore) with a MWCO of 30 kDa by washing and centrifuging several times at 10,000 × g and 4 °C. Buffer-exchanged protein was adjusted to a concentration of 30 µM with NMR buffer. The respective fragment concentration was 428 µM with a final DMSO-d6 fraction of 5% (v/v). All measurements were performed in the presence of 500 µM ADP (in case of the ND1 domain) and 5 mM MgCl2. All data were analyzed using TopSpin 4.0.8 (Bruker Corporation, Billerica, MA, USA).

In the next assay the target is T3, N-domain of p97 (Homo sapiens, UniProt P55072).
T3 construct: additional STD measurements with the isolated N-domain were carried out; made in house
T3 sequence (P55072 21-199 limits assumed): as the sequence (P55072 21-199) above
As to the kind of experiment: STD-NMR build-up measurements with the isolated N-domain. It counts as binding. As to the method: To obtain additional information about the putative binding mode of the selected fragments, full STD-NMR build-up curves were measured for the fragments TROLL2, TROLL7, TROLL8 and TROLL12 and the initial rates of STD build-up (STD0) were calculated. […] As expected, the saturation effects were higher for the ND1 construct compared to the isolated N-domain due to the stronger nuclear Overhauser effect (NOE) of the much larger protein. Because of water suppression, not all hydrogens of the selected fragments were experimentally accessible. For the remaining hydrogen atoms, different STD0 values were determined, indicating a defined orientation of the fragments upon binding to p97 (Supplementary Fig. 7). For TROLL2, TROLL7 and TROLL12 a clear dominance in the saturation of the protons at the hydrophobic aromatic parts of the molecules was visible.
For binding epitope mapping of selected fragments, the initial growth rates approach was used as described. For determination of the initial rate of STD build up (STD0) the STD intensities for seven saturation times (0.5, 0.75, 1.0, 1.5, 2.0, 3.0, 5.0 s) were measured for the ND1 as well as for the isolated N-domain and fitted by an exponential equation using R. The recycle delay (d1) was set to 5 s. For each fragment also a negative control without protein was measured with a saturation time of 5.0 s. Theoretical STD0 values on the basis of the obtained X-ray crystal structure as well as for representative mixed-solvent MD poses were calculated using the Complete Relaxation and Conformational Exchange Matrix Analysis of Saturation Transfer (CORCEMA-ST) software version 3.8[72] and ShiftX version 1.1[73]. Predicted and experimental STD-data were evaluated using the NOE R-factor (see Supplementary Methods in the Supporting Information).

Setting [3] is: BLI steady state, 1:1 Langmuir model, errors from the fitting model, read-out: KD p97-ND1.

Where two headings read alike, the source gives them in different places.

T1 sequence (P55072 2-481): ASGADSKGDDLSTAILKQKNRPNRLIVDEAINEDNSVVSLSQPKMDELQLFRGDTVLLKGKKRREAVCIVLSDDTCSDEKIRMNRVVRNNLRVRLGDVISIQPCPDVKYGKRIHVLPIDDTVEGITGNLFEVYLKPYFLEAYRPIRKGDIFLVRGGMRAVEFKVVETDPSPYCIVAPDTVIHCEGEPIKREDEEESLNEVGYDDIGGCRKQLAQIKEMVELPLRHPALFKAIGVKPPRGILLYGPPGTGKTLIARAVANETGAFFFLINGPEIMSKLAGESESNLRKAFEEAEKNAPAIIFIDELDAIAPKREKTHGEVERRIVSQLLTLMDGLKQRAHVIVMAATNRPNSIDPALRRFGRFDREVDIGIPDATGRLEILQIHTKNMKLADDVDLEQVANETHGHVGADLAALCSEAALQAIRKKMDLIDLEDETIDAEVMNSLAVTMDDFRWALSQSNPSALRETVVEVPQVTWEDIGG

In the case of `Nc1ncnc2c1ncn2[C@@H]1O[C@H](COP(=O)(O)OP(=O)(O)O)[C@@H](O)[C@H]1O` [ADP, adenosine diphosphate, reference compound], the Kd on p97-ND1 [1] (Langmuir model, steady state measurements of a dilution series, read-out: KD of ADP to p97-ND1 (steady state)) was 0.2 ± 0.014 µM; at p97-ND1 [1] (global exponential regression, 1:1 binding model, read-out: affinity of ADP to p97-ND1 (kinetic analysis)) it was 0.239 ± 0.009 µM; on p97 ND1 fragment (ND1 fragment spanning amino acids 1-458), 0.2 µM; at p97 ND1 fragment (ND1 fragment spanning amino acids 1-480) it was 0.098 µM. Also, the ScoreBLI at p97-ND1 [1] (score evaluated with binding data for ADP) is given as 1.02.

As for `O=C(O)Cc1cc2ccccc2[nH]1` [TROLL6], at p97-N, the Kd was 160 ± 22 µM, the LLEAT is given as 0.30, the ScoreBLI is 0.75 and the LE is recorded as 0.39. The Kd on p97-ND1 [1] (setting [3]) worked out at 243 ± 16 µM. Also, at p97-ND1 [2], the “maximum STD-effect (ND1)” value amounted to 72.5, the “mean STD-effect (ND1)” value came out at 66.5 and the “STD (maximum STD signal measured with p97-ND1)” value is reported as 72.5%.

Take `NCC(O)c1ccc(Cl)cc1` (centres unmarked) [TROLL7]: on p97-N, the LLEAT is reported as 0.42, the ScoreBLI turned out to be 0.91 and the LE is recorded as 0.45. At p97-ND1 [2], the “maximum STD-effect (ND1)” value worked out at 37.3, the “mean STD-effect (ND1)” value stood at 34.5 and the “STD (maximum STD signal measured with p97-ND1)” value is on record as 37.3%. Moreover, the “binding to the N-domain by STD-NMR” value at N-domain of p97 was “confirmed the binding”.

`Cc1ccc(-c2csc3nc(CO)cn23)cc1` [TROLL14]: on p97-N, the Kd was found to be 409 ± 61 µM, the LLEAT is 0.16, the ScoreBLI is reported as 0.93 and the LE came to 0.27. At p97-ND1 [1] (setting [3]), the Kd turned out to be 290 ± 33 µM. For the same compound, at p97-ND1 [2], the “maximum STD-effect (ND1)” value came out at 67.4, the “mean STD-effect (ND1)” value is recorded as 55.4 and the “STD (maximum STD signal measured with p97-ND1)” value was 67.4%.

`Nc1[nH]ncc1-c1ccc(Cl)cc1` [TROLL18]: on p97-N, the Kd was found to be 625 ± 89 µM, the LLEAT is 0.27, the ScoreBLI came to 0.89 and the LE is reported as 0.33. Besides, the Kd on p97-ND1 [1] (setting [3]) amounted to 445 ± 223 µM. On p97-ND1 [2], the “maximum STD-effect (ND1)” value was determined as 57.4, the “mean STD-effect (ND1)” value is recorded as 54.3 and the “STD (maximum STD signal measured with p97-ND1)” value worked out at 57.4%.

On to `Nc1nc2c(s1)CN(Cc1ccccc1)CC2` [VIK20], for which, on p97-N, the Kd was found to be 147 ± 32 µM, the LLEAT is 0.27, the ScoreBLI turned out to be 0.94 and the LE was found to be 0.30. In addition, the Kd on p97-ND1 [1] (setting [3]) came out at 192 ± 92 µM. Also, on p97-ND1 [2], the “maximum STD-effect (ND1)” value is 18.3, the “mean STD-effect (ND1)” value is on record as 18.3 and the “STD (maximum STD signal measured with p97-ND1)” value is listed as 18.3%.

(Values after publication PMC9814400 (Communications Chemistry, 2022).)
